Several values for one entry are separate records, joined by “and”; a condition that tells them apart may be missing. Equal values may be shown once. Read-outs that look alike come from different tables or passages of the source.
Columns and labels:
MTH1 [1] = target: T1, MTH1 (Homo sapiens, UniProt P36639); conditions: literature value, cited from earlier work
T1 construct: Full length p18 isoform MTH1 (M1-156) with an N-terminal 6-His TEV protease cleavable tag; 6-His (TEV-cleavable) (N, cleaved yes); made in house; host or cells: E. coli Gold BL21(DE3)

MTH1 [2] = target: T1, MTH1; test: MTH1 substrate Km determination (PPiLight pyrophosphate detection; malachite green coupled assay); assay type: biochemical; conditions: this publication; 0.2 nM MTH1, substrate 0–300 μM
Protocol: MTH1 substrate Km determination assay conditions were 0.2 nM MTH1 and a concentration range of substrate from 0–300 μM, diluted in MTH1 reaction buffer (100 mM HEPES pH 7.5, 10 mM MgCl, 1 mM DTT and 0.005% Tween 20). After a reaction time of 15 minutes, pyrophosphate (PPi) released by the reaction was detected using the PPiLight inorganic pyrophosphate assay kit from Lonza and luminescence was monitored using the Perkin Elmer EnVision multimode plate reader. Substrates dGTP and 2-OH—dATP were sourced from Jena Bioscience. Substrates 8-oxo-dGTP, 8-oxo-rGTP, 8-oxo-dATP, 8-oxo-rATP and 2-OH-rATP were sourced from TriLink BioTechnologies.
All oxidised ATP-derived substrates were then tested using an assay format based on the enzymatic hydrolysis of the nucleotide substrate by purified human recombinant MTH1 to form the corresponding monophosphate nucleotide and pyrophosphate. An excess of inorganic pyrophosphatase was added to the assay, which allows the quantification of released inorganic phosphate as a measure of product levels in a coupled enzymatic assay. Inorganic phosphate was measured using an absorbance assay based on malachite green as described by Baykov et al.. The assay buffer in which MTH1, inorganic pyrophosphatase and substrates were diluted consisted of 100mM Tris at pH 7.4, 40 mM NaCl, 10 mM MgCl, 0.005% Tween 20 and 1 mM DTT. The final conditions in the assay during enzymatic incubation were 0.2 nM recombinant human MTH1, a three fold dilution range of 0–300 μM oxidised nucleotide substrate and 0.2U per ml inorganic pyrophosphatase.

MTH1 [3] = target: T1, MTH1; test: 2D-NMR (1H-15N SOFAST-HMQC) titration, Kd from chemical shift perturbations; assay type: binding; conditions: 100 μM 15N-MTH1, 298 K, pH 7.4
Protocol: Uniformly ^15N-labeled MTH1 was prepared as above with the TB media replaced M9 minimal media supplemented with 5 g/l of IsoGro base powder (^15N, 98%, Isotec) and 2 g/l of glucose. NMR samples were 100 μM in 50mM HEPES pH 7.4, 50 mM NaCl, 1 mM TCEP, 0.1 mM EDTA, 0.02% NaN3 and employing 1% d^6-DMSO as a lock signal. Spectra were acquired at 298 K on a Bruker Avance 600 MHz spectrometer running Topspin 2.1, equipped with a 5mm TCI cryoprobe with Z-axis gradients. The protein was titrated with compound stocks (100 mM in d6-DMSO) to give typical final compound concentrations 0, 50, 100, 198, 396, 593, 984, 1949 and 3824 μM; these were measured using ^1H-^15N-SOFAST-HMQC [17] experiments recorded with […] (t2,t1) complex points (in States-TPPI mode), and 9615x1624 Hz (^1H,^15N) spectral widths, (53.4 ms x 30.8 ms) acquisition times, respectively). The affinity of the compounds was determined via simultaneous nonlinear fitting of fast-exchange chemical shift perturbations (typically 5 amide correlations, employing absolute value of the linear ^1H,^15N chemical shift vector), with the GraFit package against compound concentration using a mass action binding isotherm equation.

[4] = target: T2, Histidine-tagged MTH1 (isoform p18 (M1-V156)) (Homo sapiens, UniProt P36639); test: Surface plasmon resonance (SPR) equilibrium binding; conditions: steady-state, 1:1 Langmuir fit
T2 construct: Histidine-tagged MTH1 (isoform p18 (M1-V156)) was immobilized; made in house; host or cells: E. coli Gold BL21(DE3)
Protocol: SPR experiments were performed using a Biacore T200 biosensor (GE Healthcare). Series S NTA sensor chips (GE Healthcare) were used. All experiments were carried out using assay buffer containing; 50 mM HEPES pH 7.5, 150 mM NaCl, 0.005% Tween-20 (v/v) and 1% DMSO (v/v) as running buffer. Typically, 10 mM DMSO stocks of compounds were diluted 1:100 (v/v) in 50 mM HEPES pH 7.5, 150 mM NaCl, 0.005% Tween-20 (v/v) to form 100 μM intermediate stocks with final DMSO concentration of 1% (v/v). The intermediate solutions were then subsequently diluted using assay buffer to achieve final concentration range.
Histidine-tagged MTH1 (isoform p18 (M1-V156)) was immobilized as the ligand onto NTA sensor chips using a capture coupling method. Assay buffer was used as immobilization buffer. The nitrilotriacetic (NTA) surface was first activated with a 2-min injection of 500 μM NiCl2 in running buffer before the carboxymethyl dextran surface was activated with a 7-min injection of a 1:1 ratio of 0.4 M EDC and 0.1 M NHS. His-tagged protein was diluted into running buffer to a concentration of 20 μg/mL and immobilized to the surface with a 7-min injection. Remaining activated groups were blocked with two consecutive 60-sec pulses of 0.5 M Ethanolamine. Typical immobilization levels ranged from 500 to 3000 resonance units (RU).
Biacore T200 Evaluation software (GE Healthcare) was used for data processing and analysis. Equilibrium binding analysis was analyzed by plotting steady-state response level vs. compound concentration and fitting to the Langmuir equation (describing simple 1:1 binary interaction).

MTH1 [5] = target: T1, MTH1; test: Biochemical IC50 for fragments (Fig 5)

Compound: Nc1[nH]c(=O)nc2c1ncn2[C@H]1C[C@H](O)[C@@H](COP(=O)(O)OP(=O)(O)OP(=O)(O)O)O1 [Compound 2-OH-dATP, 2-OH-dATP]
- Km (MTH1 [1]; ref [4],[34]): 8.3 µM
- Km (MTH1 [2]): 14 ± 6 µM

Compound: CNc1cc(=O)[nH]c(=O)[nH]1 [Compound 7]
- Kd (MTH1 [3]): < 5 µM
- Kd [4]: 0.81 µM
- IC50 (MTH1 [5]): 1.5 µM

Compound: Nc1nc2c(ncn2[C@H]2C[C@H](O)[C@@H](COP(=O)(O)OP(=O)(O)OP(=O)(O)O)O2)c(=O)[nH]1 [dGTP]
- Km (MTH1 [1]; ref [4],[34]): 258 µM
- Km (MTH1 [2]): 420 µM

Compound: Cc1cc(OCCCO)nc(N)n1 [Compound 6]
- Kd (MTH1 [3]): < 5 µM
- Kd [4]: 1.7 µM
- IC50 (MTH1 [5]): 4.5 µM

Compound: CC(=O)Nc1ccc2c(c1)ncn2C [Compound 5]
- Kd (MTH1 [3]): 95 ± 35 µM
- Kd [4]: > 40 µM
- IC50 (MTH1 [5]): > 80 µM

Compound: Cn1cnc2c(O)nc(N)nc21 [Compound 2]
- Kd (MTH1 [3]): 1100 µM
- IC50 (MTH1 [5]): > 100 µM

Compound: CN(C)c1nc2c(ncn2C)c(=O)[nH]1 [Compound 4]
- Kd (MTH1 [3]): 2200 µM
- IC50 (MTH1 [5]): > 100 µM

Compound: Nc1nc2c([nH]c(=O)n2[C@@H]2O[C@H](COP(=O)(O)OP(=O)(O)OP(=O)(O)O)[C@@H](O)[C@H]2O)c(=O)[nH]1 [Compound 8-oxo-rGTP, 8-oxo-rGTP]
- Km (MTH1 [1]; ref [4],[34]): 55 µM
- Km (MTH1 [2]): 82 ± 45 µM

Compound: Cn1c(=O)[nH]c2c(=O)[nH]c(N)nc21 [Compound 1]
- Kd (MTH1 [3]): 400 µM
- IC50 (MTH1 [5]): > 100 µM

Compound: CNc1nc2c(ncn2C)c(=O)[nH]1 [Compound 3]
- Kd (MTH1 [3]): 82 ± 6 µM
- Kd [4]: 24 ± 0.4 µM
- IC50 (MTH1 [5]): 59 µM

Compound: Nc1[nH]c(=O)nc2c1ncn2[C@@H]1O[C@H](COP(=O)(O)OP(=O)(O)OP(=O)(O)O)[C@@H](O)[C@H]1O [Compound 2-OH-rATP, 2-OH-rATP]
- Km (MTH1 [1]; ref [4],[34]): 4.3 µM
- Km (MTH1 [2]): 13.4 µM and 13 µM

Compound: Nc1ncnc2c1[nH]c(=O)n2[C@@H]1O[C@H](COP(=O)(O)OP(=O)(O)OP(=O)(O)O)[C@@H](O)[C@H]1O [Compound 8-oxo-rATP, 8-oxo-rATP]
- Km (MTH1 [1]; ref [4],[34]): 51 µM
- Km (MTH1 [2]): 241 µM and 240 µM

Compound: Nc1ncnc2c1[nH]c(=O)n2[C@H]1C[C@H](O)[C@@H](COP(=O)(O)OP(=O)(O)OP(=O)(O)O)O1 [Compound 8-oxo-dATP, 8-oxo-dATP]
- Km (MTH1 [1]; ref [4],[34]): 15.2 µM
- Km (MTH1 [1]; ref [26]): 13.9 µM
- Km (MTH1 [2]): 7.6 ± 0.5 µM

— publication PMC4801406, “MTH1 Substrate Recognition—An Example of Specific Promiscuity” (PLoS ONE, 2016)
